The values that follow come from publication PMC5640650, “NatD promotes lung cancer progression by preventing histone H4 serine phosphorylation to activate Slug expression” (Nature Communications, 2017).

Data set [1] relates to A549 cells. Kind of data set: Expression of EMT genes, A549 cells. The class given is cell-based, human. The settings on record: vs Scr. On the procedure:
Cellular proteins were extracted by RIPA lysis buffer at high salt concentration (420 mM NaCl), and western blot analysis was performed in accordance with standard protocols. Scans of enhanced chemiluminescence (ECL) films showing uncropped blots are presented in Supplementary Fig. 10. […]
Total RNA from tissue samples and cultured cells was extracted using TRIzol reagent (Invitrogen). cDNAs were synthesized with a HiScript 1st Strand cDNA Synthesis Kit (Vazyme Biotech, China). Quantitative RT-PCR was performed using a FastStart Universal SYBR Green Master (Roche) according to the manufacturer’s instructions in a Rotor-Gene 6000 (Corbett Research) in a final volume of 20 μl. […]
Supplementary Figure 4. […] (a) Quantitative real-time PCR analysis of mRNA levels of NatD, CCND1, p21, p27, p57, p16, p18, p19, CHEK2, E2F1, CCND2, KRAS, PTEN, c-Myc, and PCNA in scrambled (Scr) and NatD knockdown (NatD-KD) H1299 cells normalized to GAPDH. […] (b) Quantitative real-time PCR analysis of mRNA levels of NatD and key EMT-related genes in Scr and NatD-KD A549 cells normalized to […]
GAPDH served as a loading control. […] (bottom) Cell migration and invasion expressed as a percentage of control. […]

For data set [2], the system named is A549 cells. Kind of data set: Orthotopic implantation in nude mice, A549 cells. The class given is in vivo, human. The settings on record: pleural cavity, 21 days, n = 6, vs Scr. On the procedure:
All animal care and handling procedures were performed in accordance with the National Institutes of Health Guide for the Care and Use of Laboratory Animals, and were approved by the Institutional Review Board of Nanjing University (Nanjing, China). Female SCID mice and C57BL/6 mice (6–8 week old) were purchased from the Model Animal Research Center of Nanjing University (Nanjing, China), and were maintained under specific pathogen-free conditions at Nanjing University. The sample size was chosen with adequate power on the basis of the literature and our previous experience[46] and for each experiment it is indicated in the figure legend. […] Lung nodules and progression were monitored and quantified using the bioluminescence system (Caliper IVIS Lumina XR) or by counting under a dissecting microscope. […] Mice were killed at day 28 or day 30 to collect lungs, and lung nodules in serial sections were quantified microscopically. […] Lung nodules and progression were monitored and quantified using the bioluminescence system (Caliper IVIS Lumina XR). Mice were killed at day 14 or day 21 to collect lungs, and lung nodules in serial sections were quantified microscopically. […]
Supplementary Figure 9. […] (right) Relative BLI signals of lung tumors of corresponding mice (n = 6 for each group) recorded on day 3 and day 21. […]

Consider “NatD-KD2: Human NatD shRNA KD2: 5′-GGTTGAATGTCTCCATTGA-3′, lentiviral (shRNA lentiviral)”, for which, in the data set with A549 cells [1], the “expression of E-cadherin” value was “increased the expression”; the “expression of Slug, N-cadherin, and Vimentin” value is “decreased the expression”. Besides, the “migration and invasion, orthotopic model” value in the data set on A549 cells [2] is “significantly reduced”.
